From patent US12171840B2, “Anti-mesothelin antibody and antibody drug conjugate thereof” (Remegen, Ltd., priority 2018, dated 2024)
“And” between values parts separate entries of the source, which are not always exact repeats. Identical values can stand only once. Like-named read-outs stand apart in the source and are kept apart here. Starred links: 1 amine or outer side, 2 acyl side, 3 side chain; linkers in the order of their positions; H or OH if unused. Non-standard residues stand in square brackets, D forms with d. Residues, ends and D or L forms follow the SMILES beside them. *: point of attachment. Dolaproine = CO[C@@H]([C@@H]1CCCN1)[C@@H](C)C(=O)O; Hexanoyl(6-maleimido) = O=C1C=CC(=O)N1CCCCCC(=O)*; Dil = CC[C@H](C)[C@H](NC)[C@@H](CC(=O)O)OC; PABC = O=C(OCc1ccc(N[*:1])cc1)[*:2]; Doe = c1ccc(C[C@H](N*)c2nccs2)cc1; X1 = C[C@@H](N*)[C@@H](O)c1ccccc1; Cit = NC(=O)NCCC[C@H](N)C(=O)O; NMeV = CN[C@H](C(=O)O)C(C)C

Experiments:
Oval-Citar-3-MSLN cells = experiment: Cytotoxic activity (CCK-8) in Oval-Citar-3 cells with high expression of MSLN; conditions: for IC50: read-out: cytotoxicity IC50
Protocol: Oval-Citar-3-MSLN cells in good growth state were added to a 96-well cell culture plates (5×10^4 cells/mL. 100 μL/well), and incubated overnight at 37° C. in a CO2 incubator. […] After dilution, they were added to 96 plates (100 μL/well), and a blank group (equal volume of medium without drug) and three control groups were set, and incubation was carried out in a CO2 constant temperature incubator at 37° C. for 72 hours. A medium (without FBS) that contained 10 μL of CCK-8 at a dose of 100 μL/well was added, incubated at 37° C. for 2 to 4 hours in a CO2 incubator, and the OD values at 450 nm were read with a microplate reader. The inhibition rate was calculated by the following formula: IR %=(ODblank−ODdrug)×100/ODblank.

[1] = test system: Oval-Citar-3 human ovarian cancer bearing mouse model with high expression of MSLN; experiment: Anti-tumor experiment of RC88-Py-MAA-Val-Cit-PAB-MMAE, dose groups and controls, in Oval-Citar-3-MSLN tumor-bearing nude mice (Example 6); format: in vivo
Protocol: Oval-Citar-3-MSLN cells (2×10^6) in normal growth state were subcutaneously inoculated in nude mice (Changzhou Cavans Laboratory Animal Co., Ltd., certificate number: 201611240, license number: SCXK (Su) 2011-0003), and the animals were randomized after the tumor volume grew to approximately 100-400 mm^3. […] 3 times in total (PTX was administered twice a week, 6 times in total), and the negative control group was administrated with the equal amount of physiological saline at the same time.

[2] = OVal-CitAR3-MSLN, 72 hours, CCK-8, N = 3
[3] = 10 mg/kg twice a week, 6 times in total, after 21 days of administration

Row | Structure (SMILES) | Inhibition rate, % (maximum inhibition rate) (Oval-Citar-3-MSLN cells; [2]) | cytotoxicity IC50 (Oval-Citar-3-MSLN cells; [2]) | IC50 (Oval-Citar-3-MSLN cells; [2]) | difference from the control (saline) group ([1]; 0.06 mg/kg, once a week, 3 times in total, P>0.05) | T/C [1, 3] | tumors completely eliminated (CR) [1, 3] | tumor volume and RTV versus the control (saline) group ([1]; 10 mg/kg twice a week, 6 times in total, after 21 days, P<0.05) | IC50 (Oval-Citar-3-MSLN cells; Homo sapiens, 72 h)
1 | CC[C@H](C)[C@@H]([C@@H](CC(=O)N1CCC[C@H]1[C@H](OC)[C@@H](C)C(=O)N[C@@H](Cc1ccccc1)c1nccs1)OC)N(C)C(=O)[C@@H](NC(=O)[C@@H](NC)C(C)C)C(C)C [MMAD, monomethyl auristatin D] (H-[NMeV]V[Dil][Dolaproine]-Doe) | 98.1 ± 2.4% | 0.1169 ± 0.0074 ng/mL | 0.152 ± 0.01 nM |  |  |  |  | 
2 | CC[C@H](C)[C@@H]([C@@H](CC(=O)N1CCC[C@H]1[C@H](OC)[C@@H](C)C(=O)N[C@H](C)[C@@H](O)c1ccccc1)OC)N(C)C(=O)[C@@H](NC(=O)[C@@H](NC)C(C)C)C(C)C [MMAE, monomethyl auristatin E] (H-[NMeV]V[Dil][Dolaproine]-X1) | 96.9 ± 0.7% | 0.3199 ± 0.0284 ng/mL | 0.446 ± 0.0395 nM | no significant difference |  |  |  | 
3 | CC[C@H](C)[C@@H]([C@@H](CC(=O)N1CCC[C@H]1[C@H](OC)[C@@H](C)C(=O)N[C@H](C)[C@@H](O)c1ccccc1)OC)N(C)C(=O)[C@@H](NC(=O)[C@H](C(C)C)N(C)C(=O)OCc1ccc(NC(=O)[C@H](CCCNC(N)=O)NC(=O)[C@@H](NC(=O)CCCCCN2C(=O)C=CC2=O)C(C)C)cc1)C(C)C [Mc-Val-Cit-PAB-MMAE] ({Hexanoyl(6-maleimido)}-V[Cit][PABC][NMeV]V[Dil][Dolaproine]-X1) | 94.5 ± 0.8% | ~663.4 ng/mL |  |  |  |  |  | 
4 | CC(=O)O[C@H]1C(=O)[C@@]2(C)[C@H]([C@H](OC(=O)c3ccccc3)[C@]3(O)C[C@H](OC(=O)[C@H](O)[C@@H](NC(=O)c4ccccc4)c4ccccc4)C(C)=C1C3(C)C)[C@]1(OC(C)=O)CO[C@@H]1C[C@@H]2O [PTX, Paclitaxel] | 92.8 ± 1.5% |  |  |  | < 40% | tumors were completely eliminated (CR) in two tumor-bearing mice | statistically different | 0.00109 µg/mL and 1.27 nM
